From patent publication US12668803B2, “Glypican-3-specific modified aptamer and use thereof” (APTAMER SCIENCES INC., priority 2019, dated 2026) come the findings set out here.

In data set [1] the test system is Huh-7 cells. The data set is described as follows: Cellular internalization analysis (microscopy, lysotracker/DAPI). The data set is classed as cell-based. The protocol:
5 aptamer libraries prepared by truncating the 12-10 aptamer at various lengths [12-12 (35-mer), 12-11 (29-mer), 12-13 (24-mer), 12-14 (23-mer), and 12-15 (18-mer)] were subjected to cellular internalization analysis. In detail, a 6-well plate was prepared, and a round cover glass was placed in the 6-well plate. Huh-7 cells were cultured in the 6-well plate according to the method of Example 1-3. 5 μM of the aptamer stock was mixed with 5×SB18 buffer to prepare the aptamer at a concentration of 4 μM, and heated at 95° C. for 5 min, and then cooled at room temperature for 15 min or more. The next day, the medium was removed from the cultured cells, and a serum-free medium was added thereto, and cultured under conditions of 37° C. and 5% CO2 for 1 hr. The serum-free medium was removed, and then the cells were washed with 2 mL of 1×PBS. KRPH buffer was added, and cultured under conditions of 37° C. and 5% CO2 for 1 hr. 4 μM aptamer was diluted to 25 nM, and then cultured under conditions of 37° C. and 5% CO2 for 1 hr or 4 hr. Washing was repeated three times with 2 mL of 1×PBS. Washing was performed in a shaker at room temperature for 10 min while blocking the light. Thereafter, the cells were fixed by treatment with 4% paraformaldehyde at 4° C. for 10 min. Washing was repeated three times with 2 mL of 1×PBS. A permeabilization solution (0.2% Triton X-100 in 1×PBS) was added, followed by incubation at room temperature for 15 min. Washing was repeated three times with 2 mL of 1×PBS. A blocking solution (3% BSA, 1×PBS) was added, followed by incubation under conditions of 37° C. and 5% CO2 for 20 min. Washing was performed once with 2 mL of 1×PBS. Treatment with a blocking solution containing 150 nM lysotracker was performed, followed by incubation under conditions of 37° C. and 5% CO2 for 1 hr. Washing was repeated three times with 2 mL of 1×PBS, and staining with 4′,6-diamidino-2-phenylindole (DAPI) was performed. The cover glass was carefully removed and […]. […]

Data set [2] concerns HepG2. The data set is described as follows: Cytotoxicity (CCK-8) of 12-12 G(3). The class given is cell-based. The protocol:
(§1) In detail, HepG2, Hep3B, and A431 cells (ATCC, Rockville, MD, USA) were each seeded in a 96-well plate at a density of 1×10^4/mL and cultured using a DMEM (Gibco, Grand Island, NY, USA) medium containing 10% FBS (Gibco, Grand Island, NY, USA) and 1% antibiotics (penicillin/streptomycin) under conditions of 5% CO2 and 37° C. The next day, the aptamer stock (100 μM) was mixed with 5×SB18 buffer to prepare the stock at a concentration of 80 μM, and heated at 95° C. for 5 min, and then cooled at room temperature for 15 min or more. The medium was removed from the cultured cells, and 100 μL of a serum-free medium was added thereto, and cultured under conditions of 37° C. and 5% CO2 for 1 hr. The serum-free medium was removed, and then the cells were washed with 100 μL of 1×PBS. 100 μL of KRPH buffer was added, and cultured under conditions of 37° C. and 5% CO2 for 1 hr. The aptamer was diluted with KRPH buffer to 2-fold of the desired concentration, and added to a 96-well plate at 1× concentration, and cultured under conditions of 37° C. and 5% CO2 for 4 hr. After treatment with the aptamer, the KRPH buffer was removed, and then 100 μL of culture medium was added and cultured under conditions of 37° C. and 5% CO2 for 6 days. 6 days later, 10 μL of a CCK-8 kit solution was added to each well, and then cultured under conditions of 37° C. and 5% CO2 for 3 hr. Cell death levels were examined at […] using a microplate reader.

For data set [3], the system named is squamous cell carcinoma cell A431. The data set is described as follows: Cytotoxicity (CCK-8) of 12-12 G(3). The data set is classed as cell-based. The protocol: as §1
Data set [4] deals with Hep3B. As to the kind of experiment: Cellular internalization of chemically optimized aptamers (FIG. 17A). The class given is cell-based. The settings on record: combi 1 to combi 5, FIG. 17A.
Data set [5] relates to Huh 7 cells. As to the kind of experiment: Cell binding analysis of Cy5-labeled aptamers (FACS). The data set is classed as cell-based. The conditions noted are these: 25 nM aptamer, 12-10 and truncated aptamers, FIG. 6. The protocol: The 12-10 aptamer and 5 aptamer libraries prepared by truncating the 12-10 aptamer at various lengths [12-10 (40-mer), 12-12 (35-mer), 12-11 (29-mer), 12-13 (24-mer), 12-14 (23-mer), 12-15 (18-mer)] were subjected to cell binding analysis. Each aptamer sequence was labeled with Cy5 at the 5′ end thereof according to the method of Example 1-1. Huh 7 cells (ATCC, Rockville, MD, USA) were seeded at a density of 2×10^6/mL in a 100 mm^2 culture plate, and cultured using a DMEM medium (Gibco, Grand Island, NY, USA) containing 10% FBS (Gibco, Grand Island, NY, USA) and 1% antibiotics (penicillin/streptomycin) under conditions of 5% CO2 and 37° C. 5 μM of the aptamer stock was mixed with 5×SB18 buffer to prepare the aptamer at a concentration of 4 μM, and heated at 95° C. for 5 min, and then cooled at room temperature for 15 min or more. 4 μM of the aptamer was diluted with KRPH buffer (20 mM HEPES, 5 mM KH2PO4, 1 mM MgSO4, 1 mM CaCl2, 136 mM NaCl, 4.7 mM KCl, pH 7.4) at a concentration of 25 nM. The culture medium was removed from the cultured cells, and 4 mL of phosphate-buffered saline (PBS) was added thereto, followed by washing, and then 4 mL of PBS was removed. 4 mL of cold PBS or warm PBS was added, and cells were scraped using a scraper, and collected in tubes, followed by pipetting. The cells were divided and added to fluorescence-activated cell sorting (FAC) tubes according to the number of samples, followed by centrifugation at 4° C. and 2000 rpm for 4 min. After removing the supernatant, each 500 μL of 25 nM aptamer and control (31-08 (40-mer) aptamer) were added to […] of KRPH buffer, followed by pipetting. The tube was covered with foil to block the light, followed by incubation at 4° C. for 30 min. After incubation, centrifugation was performed at 4° C. and 2000 rpm for 4 min, and the supernatant was removed. 2 mL of cold 1×PBS was added, washed, centrifuged at 4° C. and 2000 rpm for 4 min, and the supernatant was removed. This process was repeated three times. […] Cy5 was measured at […]. […]

Data set [6] can be described thus: Serum stability analysis (urea PAGE). The class given is in vitro ADME, human. The settings on record: 100% human serum, 37° C., FIG. 28. As to the method:
To examine whether 12-12, combi 5 aptamer, combi 4 and combi 5 modified aptamers bound with three or five gemcitabines are stable in the human serum, serum stability was analyzed. In detail, 10 μL of […] was added to 100% human serum, followed by incubation at 37° C. for 0 hr, 1 hr, 3 hr, 6 hr, 12 hr, and 24 hr. After incubation, 5 μL of […] was added, and distilled water was added to a volume of 250 μL. 250 μL of phenol:chloroform:isoamyl alcohol (25:24:1) was added in the equal volume, followed by stirring. Each sample was centrifuged at 16000×g for 10 min. The supernatant was transferred to a new tube, and completely dried. The resultant was diluted with 5× sample buffer and distilled water, and boiled at 95° C. for 5 min, and cooled. The sample was separated by urea PAGE (Polyacrylamide gel Electrophoresis) at 220 V for 25 min, and then stained with SYBR gold and examined using a Gel Doc™ EZ system.

For data set [7], the system named is hepatoma specific cells expressing high levels of GPC3 (HepG2, Hep3B). As to the kind of experiment: Cellular internalization of combi 6 to combi 10 (FIG. 17B). The data set is classed as cell-based.

In the case of “12-12 G(3) (DNA GNGAANGCGNNGAANNANGNSSSNNCAGNCANCAC; three gemcitabines, BzdU and 3' inverted dT, positions not given here)”, in data set [1] (1 hr, 2 hr, and 4 hr after the start of internalization, FIG. 11), the “cellular internalization over time” value was “most excellent cellular internalization”. Besides, the cellular internalization result in data set [1] (vs 12-12 and scrambled 12-12, FIG. 10) was “most excellent cellular internalization”. Further, the HepG2-killing effects entry in data set [2] (10 nM to 1 μM, vs 12-12 or 30 nM to 3 μM gemcitabine, FIG. 12) is recorded as “excellent HepG2-killing effects”; in data set [2] (31.75 nM to 2 μM, vs same concentrations of 12-12 or gemcitabine, FIG. 13), “excellent HepG2-killing effects”. The “cell-killing effects on A431” value was “no cell-killing effects” in data set [3] (10 nM to 1 μM, FIG. 12) and “no cell-killing effects” in data set [3] (31.75 nM to 2 μM, FIG. 13).
Take “Combi 4: SEQ ID NO: 13, chemically optimized 12-12 aptamer (G_{Me}nG_{Me}A_{F}A_{F}nGCGnnG_{F}A_{F}A_{F}nnA_{F}nGYC_{F}C_{F}C_{F}nnCAG_{Me}nCAnCAMC_{F}; 2'-F and 2'-OMe units, modified bases n, Y, M undefined, 3' idT, as printed in the source, key not given here)”: the Hep3B cellular internalization entry in data set [4] is listed as “excellent cellular internalization”.
Take “12-12: SEQ ID NO: 6, 35-mer truncated from 2428-12-10, idT at 3′ end (GNGAANGCGNNGAANNANGNCCCNNCAGNCANCAC; modified base n undefined, 3' idT per name, further chemistry not given here)”: the cell binding ability result in data set [5] was “most excellent cell binding ability”. The cellular internalization result in data set [1] (25 nM, truncated aptamers, FIG. 7) is listed as “most excellent cellular internalization”. Also, the “half-life in the human serum” value in data set [6] was determined as 6 h.
Consider “Combi 8: SEQ ID NO: 17, chemically optimized 12-12 aptamer (G_{Me}nG_{Me}A_{F}A_{F}nGCGnnG_{F}A_{F}A_{Me}nnA_{Me}nWnC_{F}C_{F}C_{F}nnCAG_{Me}nCAnC_{F}A_{Me}C_{F}; 2'-F and 2'-OMe units, modified bases n, W undefined, 3' idT, as printed in the source, key not given here)”, for which the cellular internalization result in data set [7] is recorded as “highest cellular internalization”.
For the substance “Combi 9: SEQ ID NO: 18, chemically optimized 12-12 aptamer (G_{Me}nG_{Me}A_{F}A_{F}nGCGnnG,A_{F}AnnAnGnC_{F}C_{F}C_{F}nnCAG_{Me}nCAnCrAyCr; 2'-F and 2'-OMe units, modified base n undefined, 3' idT, as printed in the source, key not given here)”, the cellular internalization result in data set [7] is reported as “highest cellular internalization”.
